Data on one compound can be found in patent US20130244875A1, “METHODS AND COMPOSITIONS FOR IMPROVING PLANT HEALTH” (priority 2006, published 2013).

The subject of one data set is transgenic soybean. Nature of the data set: Soybean yield field trials with dicamba treatments. As to the method: The yield enhancing-benefit of DSCA was tested by growing non-transgenic and transgenic plants and applying dicamba to transgenic plants and harvesting the seeds. Non-transgenic and transgenic soybean seeds were planted near the beginning of the growing season in several locations at the time of best possible growth conditions such as soil moisture, temperature, and seeding depth. Across all locations seeds were planted under split-plot design with dicamba treatments as whole-plot effects and events as split-plot effects. The design details were as follows: 6 locations, 2 replications/location, 2 rows/plot, row length 12 feet (+3 ft alley), 9 seeds/foot, 108 seeds/row, 5 events (events 1-4 and a fifth event that was segregating); and 4 treatments as shown below in Table 4. In all, 240 plots were planted at 6 locations (40 per location).
Four non-transgenic border rows were planted all around the trial using a known commercial line such as A3525. Optimum production and management practices known in the art were followed. Maximum pest control and disease control was practiced as needed to prevent confounding effects of dicamba applications. The field was irrigated as needed according to standard practices.
The treatments were: untreated (Untrt); 1 lb/A dicamba at planting followed by 1 lb/A dicamba at V3 growth stage (1×1); 2 lb/A dicamba at planting followed by 2 lb/A dicamba at V3 growth stage (2×2); and 1 lb/A dicamba at planting followed by 1 lb/A dicamba at V3 growth stage followed by 1 lb/A dicamba at R1 stage (1×1×1).

Data set [1] deals with PR-2, i.e., β-1,3-glucanase. In words: Induction of PR2 (northern blot) in DMO soybean sprayed with dicamba or DCSA. It is filed as in vivo. As to the method: A 14 hour minimum photoperiod was provided with supplemental light at about 600 μE (micro-Einsteins) as needed. Trials were established in a randomized block design randomized by rate with 4 to 6 replications of each treatment.
All herbicide applications were made with the track sprayer using a Teejet® 9501E flat fan nozzle (Spraying Systems Co, Wheaton, Ill.) with air pressure set at a minimum of 24 psi (pounds per square inch), or 165 kpa (kilopascals)). The spray nozzle was kept at a height of about 16 inches above the top of plant material for spraying. The spray volume was 10 gallons per acre or 93 liters per hectare. Applications were made when plants had reached V-3 stage.
Events carrying a DMO transgene in their genome were grown and treated with dicamba (Clarity®, BASF) at 1 lb/Acre at Post-V3 stage. Leaf samples were harvested after 0, 3, 8, 24, 48, 72 hrs after treatment (HAT) and frozen for further analysis. In another experiment, DMO-containing plants were sprayed with either dicamba or DCSA at 0.25, 0.5 and 1 lb/Acre rate and tissue samples were collected 24 HAT. RNA was extracted and analyzed by northern blot analysis using PR-2, i.e., β-1,3-glucanase as a probe. PR-2 is a pathogenesis-related protein known to degrade […] and thus provide protection against fungal pathogens (U.S. Pat. No. 5,670,706 and Uknes et al., 1992).

The test system of another data set is PR5. Nature of the data set: Induction of PR5 (northern blot) by dicamba or DCSA. The format is in vivo, soybean. Particulars: probe specific to PR5; procedures as for PR2.
For data set [2] the following is noted: 24 hours at 30° C., RP-HPLC. As to the method: Leaf strip and whole plant studies were performed using liquid chromatography assays to determine metabolism of dicamba to DCSA in soybeans. Leaf tissue was removed from wild-type soybean plants and soybean plants transgenic for the DMO gene and were cut into 1 mm strips, the strips then incubated in 25 mM Tris pH 7.5 with radiolabeled dicamba (14C dicamba) for 24 hours at 30° C. After incubation, the leaf tissue was homogenized with a spinning pestle, acidified, solids pelleted by centrifugation and an aliquot of the supernatant analyzed by RP-HPLC equipped with a radiation detector.

Data set [3] has as its system transgenic soybean seeds containing the DMO gene. Conditions: 22° C., 1 low, 2 moderate, 3 high, N=10. As to the method:
Transgenic soybean seeds containing the DMO gene were germinated in the presence of 100 or 200 mM sodium chloride (NaCl, salt). […] A diglycoamine salt of dicamba (Clarity) was applied to 113.5 g samples of soy in a water based slurry that contained an agricultural dye. Slurry and dye rates were 8 and 0.5 fl oz/cwt. Aliquots of each dicamba solution were added to seeds contained in a glass jar and agitated. After uniform coverage was attained, seeds were placed on towels and allowed to dry. Non-DMO soybeans were treated at rates of 0, 0.5, 2.5, and 5.0 g ai/100 kg. DMO soybeans were treated with 0, 0.5 and 2.5 g ai/100 kg. Seed germination was scored DAT (2 days after treatment) or 5DAT (days after treatment) at 22° C. The germination rate was scored as 1—low, 2—moderate, 3—high for each treatment, N=10.

Data set [4] concerns soybean plants transgenic for the DMO gene. Conditions: DMO transgenic soybean sprayed at up to 2.5 lb/A; various times; RP-HPLC. The protocol: For whole plant assays, soybean plants transgenic for the DMO gene were treated with 14C dicamba by spraying the plants with a solution containing the 14C dicamba at a rate up to 2.5 lb/A. Leaf samples from the treated plants were collected at various times after treatment and analyzed for the DMO metabolites by RP-HPLC. The leaf tissue was homogenized with a spinning pestle, acidified, solids pelleted by centrifugation and an aliquot of the supernatant analyze by RP-HPLC equipped with a radiation detector.

The mark [5] stands for this setting: 200 mM NaCl, 0.5 g ai/100 kg dicamba seed treatment, 0.0 dicamba 1.
The mark [6] stands for this setting: 200 mM NaCl, 2.5 g ai/100 kg dicamba seed treatment, 0.0 dicamba 1.

Each structure is given as a SMILES string. Read-outs that look alike come from different tables or passages of the source.

For the compound `COc1c(Cl)ccc(Cl)c1C(=O)O` [Dicamba, 3,6-dichloro-2-methoxybenzoic acid], in the data set on transgenic soybean (DMO soybean, dicamba 1.5 lb ae/Acre Pre, Post or both, in 4/5 events and 13/15 treatments, 6 locations), the “yield compared with unsprayed controls” value was “an increase or equivalent yield to unsprayed controls”. For the same compound, the “increase in seed yield” value with transgenic soybean (three DMO soybean events, dicamba treatments vs untreated, average of 15 locations) is on record as “up to 4.6%”. For the same compound, in the data set on transgenic soybean (transgenic soybean, agronomic and efficacy trials), the “maturity of dicamba treated plants compared with untreated plant” value is reported as “no delay in maturity”. Moreover, the “time of peak induction of PR2” value in data set [1] (DMO soybean, dicamba 1 lb/Acre at Post-V3) stood at 48 h. Further, the “induction of PR2 at various time points” value in data set [1] (DMO soybean, dicamba 1 lb/Acre at Post-V3, 0-72 HAT, no induction in untreated plants) was “induction of PR2”. Besides, the “induction of PR2 at various rates” value in data set [1] (two transgenic soybean lines, 0.25, 0.5 and 1 lb/Acre, 24 hrs after treatment, no induction in untreated or water only) is given as “induction of PR2”. In addition, in the data set on PR5, the “induction of PR5” value was “Induction of PR5”. For the same compound, the “metabolism of radiolabeled dicamba” value in data set [2] (leaf strips of transgenic DMO gene containing soybean) is “metabolized to DCSA and other polar metabolites”; in data set [2] (leaf strips of wild-type soybean) it was “not in the wild-type soybean plants”. The “Germination rating 2DAT” value amounted to 2 in data set [3] (100 mM NaCl, 0.5 g ai/100 kg dicamba seed treatment, 0.0 dicamba 1); 2 in data set [3] (100 mM NaCl, 2.5 g ai/100 kg dicamba seed treatment, 0.0 dicamba 1); 1.5 in data set [3] (setting [5]); 1.5 in data set [3] (setting [6]). The “Germination rating 5DAT” value in data set [3] (100 mM NaCl, 0.5 g ai/100 kg dicamba seed treatment, 0.0 dicamba 2) turned out to be 3; in data set [3] (100 mM NaCl, 2.5 g ai/100 kg dicamba seed treatment, 0.0 dicamba 2), 3; in data set [3] (setting [5]), 2; in data set [3] (setting [6]), 1. Also, in data set [4], the “metabolites of 14C dicamba in leaf samples” value is given as “DCSA is produced as a metabolite of dicamba”.
